Assay results from ChEMBL document CHEMBL5647694, “Novel orally bioavailable EZH1/2 dual inhibitors with greater antitumor efficacy than an EZH2 selective inhibitor” (Cancer Sci, 2017).

Key:
[1] = target: Tyrosine-protein kinase SYK (Homo sapiens) (UniProt P43405); experiment: Inhibition of N-terminal GST-tagged full length human SYK (1 to 635 residues) expressed in baculovirus-infected Sf21 cells using Blk/Lyntide as substrate at 1 uM in presence of ATP by Mobility shift assay
[2] = system: HCC1143; experiment: Antitumor activity against human HCC1143 cells assessed as cell growth inhibition treated for 10 to 15 days; type: functional; details: time 10-15 day
[3] = system: NCI-H446; experiment: Antitumor activity against human NCI-H446 cells assessed as cell growth inhibition treated for 10 to 15 days; type: functional; details: time 10-15 day
[4] = system: CEM/C2; experiment: Antitumor activity against human CEM/C2 cells assessed as cell growth inhibition treated for 10 to 15 days; type: functional; details: time 10-15 day
[5] = target: Histone-lysine N-methyltransferase NSD2 (Homo sapiens, UniProt O96028, T1150A); experiment: Inhibition of human NSD2 T1150A mutant using Nucleosomes and [3H]SAM as substrate incubated for 30 mins to 1 hr by HotSpot kinase assay
Chain of Histone-lysine N-methyltransferase NSD2 (O96028 whole entry T1150A): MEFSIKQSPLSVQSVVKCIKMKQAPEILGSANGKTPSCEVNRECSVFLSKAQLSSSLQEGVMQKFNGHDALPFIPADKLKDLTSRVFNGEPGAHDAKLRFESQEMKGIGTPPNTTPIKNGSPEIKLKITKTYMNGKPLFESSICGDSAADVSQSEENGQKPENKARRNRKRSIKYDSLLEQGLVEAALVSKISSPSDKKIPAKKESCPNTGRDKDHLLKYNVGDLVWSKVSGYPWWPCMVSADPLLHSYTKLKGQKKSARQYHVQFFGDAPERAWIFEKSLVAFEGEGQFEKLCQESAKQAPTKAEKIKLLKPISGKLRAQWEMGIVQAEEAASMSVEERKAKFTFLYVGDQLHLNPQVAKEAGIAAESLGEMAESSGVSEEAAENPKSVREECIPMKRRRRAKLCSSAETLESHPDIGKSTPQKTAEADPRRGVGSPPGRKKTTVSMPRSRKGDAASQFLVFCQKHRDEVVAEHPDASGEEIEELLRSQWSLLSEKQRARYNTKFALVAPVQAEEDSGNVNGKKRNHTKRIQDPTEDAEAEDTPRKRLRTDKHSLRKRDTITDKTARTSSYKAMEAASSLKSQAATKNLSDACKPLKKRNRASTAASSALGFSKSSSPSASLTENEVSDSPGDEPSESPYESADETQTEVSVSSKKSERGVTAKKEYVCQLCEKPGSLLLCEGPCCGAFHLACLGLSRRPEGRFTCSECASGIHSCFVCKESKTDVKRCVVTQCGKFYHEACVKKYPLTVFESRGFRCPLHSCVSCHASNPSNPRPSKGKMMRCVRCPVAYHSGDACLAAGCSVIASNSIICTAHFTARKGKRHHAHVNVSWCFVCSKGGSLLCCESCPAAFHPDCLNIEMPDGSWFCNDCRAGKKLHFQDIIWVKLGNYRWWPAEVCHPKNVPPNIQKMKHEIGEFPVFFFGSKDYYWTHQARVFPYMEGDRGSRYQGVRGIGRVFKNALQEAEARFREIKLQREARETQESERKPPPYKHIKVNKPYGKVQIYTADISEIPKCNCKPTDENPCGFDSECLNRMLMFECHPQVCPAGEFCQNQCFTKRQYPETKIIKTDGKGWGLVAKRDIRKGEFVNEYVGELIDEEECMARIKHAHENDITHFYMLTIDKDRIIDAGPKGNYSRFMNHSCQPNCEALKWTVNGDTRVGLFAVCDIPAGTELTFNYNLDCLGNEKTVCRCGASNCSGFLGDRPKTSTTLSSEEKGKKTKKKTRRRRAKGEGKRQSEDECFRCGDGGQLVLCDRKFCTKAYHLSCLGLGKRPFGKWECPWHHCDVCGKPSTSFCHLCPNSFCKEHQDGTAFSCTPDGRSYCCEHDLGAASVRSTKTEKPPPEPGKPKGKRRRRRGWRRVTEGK

[6] = system: SNU1; experiment: Antitumor activity against human SNU1 cells assessed as cell growth inhibition treated for 10 to 15 days; type: functional; details: time 10-15 day
[7] = system: HCC70; experiment: Antitumor activity against human HCC70 cells assessed as cell growth inhibition treated for 10 to 15 days; type: functional; details: time 10-15 day
[8] = Antitumor activity against human NCI-H841 cells assessed as cell growth inhibition treated for 10 to 15 days; type: functional; details: time 10-15 day
[9] = target: Histone-lysine N-methyltransferase EHMT2 (Homo sapiens, UniProt Q96KQ7); experiment: Inhibition of human G9a using Histone H3 (1-21 residues) and [3H]SAM as substrate incubated for 30 mins to 1 hr by HotSpot kinase assay
Chain of Histone-lysine N-methyltransferase EHMT2 (Q96KQ7 whole entry, the tested form may be a part): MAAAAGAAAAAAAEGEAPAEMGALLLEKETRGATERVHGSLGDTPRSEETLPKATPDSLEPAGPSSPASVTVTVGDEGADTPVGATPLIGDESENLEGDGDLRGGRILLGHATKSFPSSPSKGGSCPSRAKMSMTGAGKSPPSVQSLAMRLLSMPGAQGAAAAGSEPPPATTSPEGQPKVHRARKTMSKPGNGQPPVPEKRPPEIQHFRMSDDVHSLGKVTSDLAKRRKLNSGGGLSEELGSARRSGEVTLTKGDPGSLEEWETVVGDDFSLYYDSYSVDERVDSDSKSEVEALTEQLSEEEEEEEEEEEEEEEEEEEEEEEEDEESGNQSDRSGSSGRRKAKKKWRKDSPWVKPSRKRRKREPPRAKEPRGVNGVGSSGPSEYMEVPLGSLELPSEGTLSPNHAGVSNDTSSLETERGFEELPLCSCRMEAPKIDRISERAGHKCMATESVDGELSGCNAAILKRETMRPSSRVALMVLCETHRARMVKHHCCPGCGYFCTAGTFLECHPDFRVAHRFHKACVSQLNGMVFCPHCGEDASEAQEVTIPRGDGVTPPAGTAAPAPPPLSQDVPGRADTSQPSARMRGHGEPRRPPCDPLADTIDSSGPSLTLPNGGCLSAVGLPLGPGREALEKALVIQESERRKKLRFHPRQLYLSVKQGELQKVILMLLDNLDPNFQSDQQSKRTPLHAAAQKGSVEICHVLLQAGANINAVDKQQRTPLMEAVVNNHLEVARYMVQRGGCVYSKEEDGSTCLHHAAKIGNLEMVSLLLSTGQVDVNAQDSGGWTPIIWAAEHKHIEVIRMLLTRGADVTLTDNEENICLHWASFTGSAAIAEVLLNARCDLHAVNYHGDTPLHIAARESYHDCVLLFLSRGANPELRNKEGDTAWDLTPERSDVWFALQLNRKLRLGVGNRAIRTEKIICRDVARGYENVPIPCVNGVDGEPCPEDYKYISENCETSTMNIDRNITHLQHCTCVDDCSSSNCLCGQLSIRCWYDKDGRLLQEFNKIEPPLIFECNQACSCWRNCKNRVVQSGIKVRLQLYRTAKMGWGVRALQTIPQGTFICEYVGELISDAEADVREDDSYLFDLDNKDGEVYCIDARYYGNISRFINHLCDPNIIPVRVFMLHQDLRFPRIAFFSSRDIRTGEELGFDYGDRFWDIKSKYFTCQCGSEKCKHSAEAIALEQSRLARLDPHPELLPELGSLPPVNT

[10] = target: Histone-lysine N-methyltransferase 2D (Homo sapiens, UniProt O14686); experiment: Inhibition of human MLL2 using Core Histone and [3H]SAM as substrate incubated for 30 mins to 1 hr by HotSpot kinase assay
[11] = system: KMS-11; experiment: Antitumor activity against human KMS-11 cells assessed as cell growth inhibition treated for 10 to 15 days; type: functional; details: time 10-15 day
[12] = system: OV-90; experiment: Antitumor activity against human OV-90 cells assessed as cell growth inhibition treated for 10 to 15 days; type: functional; details: time 10-15 day
[13] = target: PRMT5/MEP50 complex (Homo sapiens, UniProt O14744+Q9BQA1); experiment: Inhibition of human PRMT5/MEP50 using Histone H2A and [3H]SAM as substrate incubated for 30 mins to 1 hr by HotSpot kinase assay; type: protein-complex assay
Chain of PRMT5/MEP50 complex (O14744 whole entry, the tested form may be a part): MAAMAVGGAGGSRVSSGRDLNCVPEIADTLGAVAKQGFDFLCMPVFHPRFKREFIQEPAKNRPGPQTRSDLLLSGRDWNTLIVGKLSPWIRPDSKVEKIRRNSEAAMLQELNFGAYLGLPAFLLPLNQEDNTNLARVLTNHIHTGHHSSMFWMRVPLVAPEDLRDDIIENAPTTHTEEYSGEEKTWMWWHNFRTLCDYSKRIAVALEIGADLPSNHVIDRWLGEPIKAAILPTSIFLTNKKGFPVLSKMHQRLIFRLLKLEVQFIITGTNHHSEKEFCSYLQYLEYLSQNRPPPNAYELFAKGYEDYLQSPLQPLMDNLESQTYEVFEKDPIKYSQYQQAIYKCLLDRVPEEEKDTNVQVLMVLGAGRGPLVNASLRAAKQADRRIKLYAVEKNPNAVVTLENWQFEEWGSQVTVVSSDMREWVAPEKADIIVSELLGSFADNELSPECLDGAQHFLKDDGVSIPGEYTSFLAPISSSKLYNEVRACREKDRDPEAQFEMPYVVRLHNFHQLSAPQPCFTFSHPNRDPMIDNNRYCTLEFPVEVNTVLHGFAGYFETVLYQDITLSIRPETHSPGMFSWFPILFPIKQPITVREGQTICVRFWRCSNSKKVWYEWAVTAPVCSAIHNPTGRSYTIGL
Chain of PRMT5/MEP50 complex (Q9BQA1 whole entry, the tested form may be a part): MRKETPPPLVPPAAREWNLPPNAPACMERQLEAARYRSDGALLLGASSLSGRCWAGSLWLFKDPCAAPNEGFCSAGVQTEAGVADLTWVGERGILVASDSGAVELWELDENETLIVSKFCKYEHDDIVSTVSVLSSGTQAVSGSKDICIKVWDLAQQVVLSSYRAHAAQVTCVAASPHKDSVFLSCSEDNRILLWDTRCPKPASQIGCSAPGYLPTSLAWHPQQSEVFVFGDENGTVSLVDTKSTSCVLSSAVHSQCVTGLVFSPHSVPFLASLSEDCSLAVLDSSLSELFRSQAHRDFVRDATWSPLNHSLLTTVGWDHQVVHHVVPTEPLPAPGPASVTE

[14] = target: MAP kinase-activated protein kinase 3 (Homo sapiens) (UniProt Q16644); experiment: Inhibition of N-terminal GST-fused full length human MAPKAPK3 (1 to 382 residues) expressed in baculovirus expression system using GS peptide as substrate at 1 uM in presence of ATP by Mobility shift assay
Chain of MAP kinase-activated protein kinase 3 (Homo sapiens) (Q16644 whole entry, looked up, the tested form may be a part): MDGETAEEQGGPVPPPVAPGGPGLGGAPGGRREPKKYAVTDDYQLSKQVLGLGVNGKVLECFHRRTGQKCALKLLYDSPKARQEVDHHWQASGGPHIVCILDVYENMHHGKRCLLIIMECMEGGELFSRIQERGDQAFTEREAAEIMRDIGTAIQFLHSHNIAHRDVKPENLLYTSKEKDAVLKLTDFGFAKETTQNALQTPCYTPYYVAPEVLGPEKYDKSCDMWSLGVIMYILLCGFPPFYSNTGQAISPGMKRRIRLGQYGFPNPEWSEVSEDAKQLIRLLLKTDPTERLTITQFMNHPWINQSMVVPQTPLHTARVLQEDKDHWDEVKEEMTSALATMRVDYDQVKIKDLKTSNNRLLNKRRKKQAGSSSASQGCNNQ

[15] = Antitumor activity against human HCC202 cells assessed as cell growth inhibition treated for 10 to 15 days; type: functional; details: time 10-15 day
[16] = system: HCC1937; experiment: Antitumor activity against human HCC1937 cells assessed as cell growth inhibition treated for 10 to 15 days; type: functional; details: time 10-15 day
[17] = system: NCI-H2081; experiment: Antitumor activity against human NCI-H2081 cells assessed as cell growth inhibition treated for 10 to 15 days; type: functional; details: time 10-15 day
[18] = system: CA46; experiment: Antitumor activity against human CA46 cells assessed as cell growth inhibition treated for 10 to 15 days; type: functional; details: time 10-15 day
[19] = system: SJRH30; experiment: Antitumor activity against human SJRH30 cells assessed as cell growth inhibition treated for 10 to 15 days; type: functional; details: time 10-15 day
[20] = system: SBC-5; experiment: Antitumor activity against human SBC-5 cells assessed as cell growth inhibition treated for 10 to 15 days; type: functional; details: time 10-15 day
[21] = Antitumor activity against human OVMANA cells assessed as cell growth inhibition treated for 10 to 15 days; type: functional; details: time 10-15 day
[22] = target: Protein arginine N-methyltransferase 8 (Homo sapiens, UniProt Q9NR22); experiment: Inhibition of human PRMT8 using Histone H4 and [3H]SAM as substrate incubated for 30 mins to 1 hr by HotSpot kinase assay
Chain of Protein arginine N-methyltransferase 8 (Q9NR22 whole entry): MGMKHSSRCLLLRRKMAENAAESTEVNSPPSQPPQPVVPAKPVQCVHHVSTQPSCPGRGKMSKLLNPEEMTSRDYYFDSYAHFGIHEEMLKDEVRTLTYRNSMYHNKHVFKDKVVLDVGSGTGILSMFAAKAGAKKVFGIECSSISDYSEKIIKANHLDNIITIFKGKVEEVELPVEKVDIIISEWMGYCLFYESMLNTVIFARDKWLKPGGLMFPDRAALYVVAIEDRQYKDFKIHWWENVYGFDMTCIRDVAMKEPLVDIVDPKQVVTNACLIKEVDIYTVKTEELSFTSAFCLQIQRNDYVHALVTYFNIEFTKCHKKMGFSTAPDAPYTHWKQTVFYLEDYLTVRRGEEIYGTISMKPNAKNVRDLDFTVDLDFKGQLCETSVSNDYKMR

[23] = system: UACC-812; experiment: Antitumor activity against human UACC-812 cells assessed as cell growth inhibition treated for 10 to 15 days; type: functional; details: time 10-15 day
[24] = Toxicity in Crl:CD Sprague-Dawley rat assessed as atrophy of hepatocytes in liver at 100 mg/kg, po administered daily for 14 days by hematoxylin and eosin staining based analysis; type: organism-based; details: in vivo, 336 h, time 14 day
[25] = Toxicity in Crl:CD Sprague-Dawley rat assessed as hematocrit level in blood at 100 mg/kg, po administered daily for 14 days (reference value: 41.2 +/-[…]); type: organism-based; details: in vivo, 336 h, time 14 day
[26] = Toxicity in Crl:CD Sprague-Dawley rat assessed as calcium level in blood at 100 mg/kg, po administered daily for 14 days (reference value: 10.1 +/-0.096 mg/dL); type: organism-based; details: in vivo, 336 h, time 14 day

Cc1cc(C)c(CNC(=O)c2cc(Cl)c3c(c2C)O[C@@](C)([C@H]2CC[C@H](N(C)C)CC2)O3)c(=O)[nH]1 [VALEMETOSTAT]
inhibition [1]: -8.4%
GI50 [2]: > 1 µM
GI50 [3]: 0.124 µM
GI50 [4]: > 1 µM
IC50 [5]: 100 µM
GI50 [6]: > 1 µM
GI50 [7]: > 1 µM
GI50 [8]: 0.134 µM
IC50 [9]: 100 µM
IC50 [10]: > 100 µM
GI50 [11]: 0.0103 µM
GI50 [12]: > 1 µM
IC50 [13]: 100 µM
inhibition [14]: -9.3%
GI50 [15]: > 1 µM
GI50 [16]: > 1 µM
GI50 [17]: 0.982 µM
GI50 [18]: 0.296 µM
GI50 [19]: > 1 µM
GI50 [20]: 0.022 µM
GI50 [21]: > 1 µM
IC50 [22]: 100 µM
GI50 [23]: > 1 µM

Cc1cc(C)c(CNC(=O)c2cc(Br)c3c(c2C)O[C@@](C)([C@H]2CC[C@H](N(C)C)CC2)O3)c(=O)[nH]1
Activity [24]: Toxic
Activity [25]: 40.1%
Activity [26]: 9.88 mg/dL
